Experimental data taken from US20230295162A1 (EÖTVÖS LORÁND TUDOMÁNYEGYETEM, priority 2020, published 2023).

Legend:
[1] = system: PANC-1 (human pancreatic carcinoma) cells; assay: Impedance-based viability assay (xCELLigence SP), long treatment; type: cell-based; details: 72 h, read-out: cytotoxicity expressed in IC50, PANC-1
Description: (Gibco®/Invitrogen Corporation, New York, NY, USA).
Data obtained from each experiment represent mathematical averages.

[2] = system: H2228 lung cancer cell line; assay: High-throughput screening, CellTiter-Glo cell viability assay at 100 nM; type: cell-based, human; details: Homo sapiens, NCI-H2228, HTS, compounds at 100 nM, 72 h, read-out: cytotoxicity expressed in IC50, H2228 (results of High throughput screening)
[3] = system: EBC-1 lung cancer cell line; assay: as above; type: cell-based, human; details: Homo sapiens, EBC-1, HTS, compounds at 100 nM, 72 h, read-out: cytotoxicity expressed in IC50, EBC-1 (results of High throughput screening)
[4] = system: EBC-1 (lung, squamous cell carcinoma) cells; assay: Cell viability assay, CellTiter-Glo (Example 21); type: cell-based, human; details: 72 h treatment
Procedure, shortened: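 The CellTiter-Glo luminescent cell viability assay (Promega) was used to test compound effects on EBC-1 cells. Cells were plated at 1000 cells/well on white flat-bottom 96 well plates, treated, then read for luminescence on a microplate reader. Dose-response curves were fitted by four-parameter variable-slope non-linear regression.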

[5] = system: DU 145 (prostate, carcinoma) cells; assay: Cell viability assay, CellTiter-Glo (Example 21); type: cell-based, human; details: 72 h
Procedure, shortened: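 DU 145 prostate carcinoma cells were plated at 1000 cells/well in white flat-bottom 96 well plates and exposed to compound. Viability was then determined by CellTiter-Glo® luminescence on a BioTek Synergy 2 reader, and dose-response curves were fitted in GraphPad Prism 8.4.2 with a four-parameter variable-slope non-linear regression.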

[6] = system: MIA PaCa-2 (pancreas, carcinoma) cells; assay: Cell viability assay, CellTiter-Glo (Example 21); type: cell-based, human; details: 72 h treatment
Procedure, shortened: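 Cell viability of MIA PaCa-2 cells was assessed by CellTiter-Glo® luminescence (Promega, Madison, WI, USA). Cells were plated at 1000 cells/well, a density chosen for their size and growth rate, in white flat-bottomed 96 well plates. After treatment, the signal was recorded on a BioTek microplate reader, and dose-response curves were fitted in GraphPad Prism 8.4.2 with a four-parameter variable-slope non-linear regression.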

[7] = system: MDA-MB-231 (breast, adenocarcinoma) cells; assay: Cell viability assay, CellTiter-Glo (Example 21); type: cell-based, human; details: 72 h treatment
Procedure, shortened: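 Viability of MDA-MB-231 cells was quantified by luminescence using Promega's CellTiter-Glo® kit per manufacturer instructions. Cells, plated at a size- and growth-optimized density of 1500 cells/well in white flat-bottom 96 well plates, were treated and then read on a BioTek Synergy 2 reader; dose-response curves used four-parameter variable-slope non-linear regression in GraphPad Prism 8.4.2.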

[8] = system: Panc-1 (pancreas, carcinoma) cells; assay: Cell viability assay, CellTiter-Glo (Example 21); type: cell-based, human; details: 72 h treatment
Procedure, shortened: (§1)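 Cells were seeded at optimized densities (Panc-1 750, FaDu 1000, Detroit 562 and MDA-MB-453 1500 cells/well), then treated with compound. Viability was read by CellTiter-Glo luminescence. Dose-response curves were fitted by four-parameter variable-slope non-linear regression.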

[9] = system: Capan-1 (pancreas, adenocarcinoma) cells; assay: Cell viability assay, CellTiter-Glo (Example 21); type: cell-based, human; details: 72 h treatment
Procedure, shortened: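 Viability of Capan-1 pancreatic adenocarcinoma cells was assessed using Promega's CellTiter-Glo® luminescence kit. Cells were plated at 1000 cells/well in white, flat-bottom 96 well plates, treated, then luminescence was recorded on a BioTek Synergy 2 reader. Dose-response curves were fitted in GraphPad Prism 8.4.2 with a four-parameter variable-slope non-linear regression.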

[10] = system: LNCaP (prostate, carcinoma) cells; assay: Cell viability assay, CellTiter-Glo (Example 21); type: cell-based, human; details: 72 h
Procedure, shortened: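 Flat-bottomed white 96 well plates received 1500 LNCaP cells per well, a density chosen to suit the cells' size and growth rate. Following compound treatment, viability was measured by CellTiter-Glo® luminescence per the manufacturer's protocol, with signal recorded on a BioTek Synergy 2 reader. GraphPad Prism 8.4.2 generated dose-response curves using a four-parameter, variable-slope non-linear regression model.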

[11] = system: PC-3 (prostate, adenocarcinoma) cells; assay: Cell viability assay, CellTiter-Glo (Example 21); type: cell-based, human; details: 72 h treatment
Procedure, shortened: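 Cancer cell viability was assessed by luminescence using Promega's CellTiter-Glo® kit. PC-3 cells, plated at a density of 1000 cells/well in white flat-bottom 96 well plates, were exposed to test compounds, after which signals were measured on a microplate reader and dose-response curves fitted by four-parameter variable-slope non-linear regression in GraphPad Prism 8.4.2.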

[12] = system: SCC-25 (tongue, squamous cell carcinoma) cells; assay: Cell viability assay, CellTiter-Glo (Example 21); type: cell-based, human; details: 72 h treatment
Procedure, shortened: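 Cell viability of SCC-25 cells was assessed by CellTiter-Glo luminescence after compound exposure. Cells were plated at 1000 cells/well, a density chosen for their size and growth rate, on white flat-bottom 96 well plates. Signal was recorded on a microplate reader, and dose-response curves were fitted in GraphPad Prism by four-parameter variable-slope non-linear regression.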

[13] = system: FaDu (pharynx, squamous cell carcinoma) cells; assay: Cell viability assay, CellTiter-Glo (Example 21); type: cell-based, human; details: 72 h treatment
Procedure, shortened: as §1

[14] = system: MDA-MB-453 (breast, carcinoma) cells; assay: Cell viability assay, CellTiter-Glo (Example 21); type: cell-based, human; details: 72 h treatment
Procedure, shortened: as §1

[15] = system: Detroit 562 (pharynx, carcinoma) cells; assay: Cell viability assay, CellTiter-Glo (Example 21); type: cell-based, human; details: 72 h treatment
Procedure, shortened: as §1

Structure (SMILES): O=C1C2=C(CCN(Cc3cc(F)cc(F)c3)C2)N2CCN=C2N1Cc1ccc(F)cc1 [I/7, 4-(4-Fluorobenzyl)-7-(3,5-difluorobenzyl)-2,4,6,7,8,9-hexahydroimidazo[1,2-a]pyrido[3,4-e]pyrimidin-5(1H)-one]
- IC50 [1]: 8 nM
- IC50 [2]: < 100 nM
- IC50 [3]: < 100 nM
- EBC-1 (lung, squamous cell carcinoma) cell viability (% of control) ([4]; 3.7 nM): 79.8 ± 4.1 % of control
- EBC-1 (lung, squamous cell carcinoma) cell viability (% of control) ([4]; 11.1 nM): 25.6 ± 0.1 % of control
- EBC-1 (lung, squamous cell carcinoma) cell viability (% of control) ([4]; 100 nM): 23.2 ± 0.9 % of control
- EBC-1 (lung, squamous cell carcinoma) cell viability (% of control) ([4]; 300 nM): 23.8 ± 0.6 % of control
- DU 145 cell viability ([5]; 3.7 nM): 64.1 ± 8.0 % of control
- DU 145 cell viability ([5]; 11.1 nM): 7.5 ± 0.6 % of control
- DU 145 cell viability ([5]; 100 nM): 7.2 ± 2.3 % of control
- DU 145 cell viability ([5]; 300 nM): 8.5 ± 2.4 % of control
- MIA PaCa-2 (pancreas, carcinoma) cell viability (% of control) ([6]; 3.7 nM): 87.4 ± 12.0 % of control
- MIA PaCa-2 (pancreas, carcinoma) cell viability (% of control) ([6]; 11.1 nM): 23.1 ± 6.3 % of control
- MIA PaCa-2 (pancreas, carcinoma) cell viability (% of control) ([6]; 100 nM): 18.5 ± 6.8 % of control
- MIA PaCa-2 (pancreas, carcinoma) cell viability (% of control) ([6]; 300 nM): 19.8 ± 8.6 % of control
- MDA-MB-231 (breast, adenocarcinoma) cell viability (% of control) ([7]; 3.7 nM): 99.6 ± 2.2 % of control
- MDA-MB-231 (breast, adenocarcinoma) cell viability (% of control) ([7]; 11.1 nM): 63.6 ± 4.4 % of control
- MDA-MB-231 (breast, adenocarcinoma) cell viability (% of control) ([7]; 100 nM): 58.6 ± 3.0 % of control
- MDA-MB-231 (breast, adenocarcinoma) cell viability (% of control) ([7]; 300 nM): 59.4 ± 3.0 % of control
- Panc-1 (pancreas, carcinoma) cell viability (% of control) ([8]; 3.7 nM): 108.6 ± 7.6 % of control
- Panc-1 (pancreas, carcinoma) cell viability (% of control) ([8]; 11.1 nM): 61.1 ± 3.4 % of control
- Panc-1 (pancreas, carcinoma) cell viability (% of control) ([8]; 100 nM): 60.0 ± 3.6 % of control
- Panc-1 (pancreas, carcinoma) cell viability (% of control) ([8]; 300 nM): 53.5 ± 0.6 % of control
- Capan-1 (pancreas, adenocarcinoma) cell viability (% of control) ([9]; 3.7 nM): 101.9 ± 3.8 % of control
- Capan-1 (pancreas, adenocarcinoma) cell viability (% of control) ([9]; 11.1 nM): 46.0 ± 7.5 % of control
- Capan-1 (pancreas, adenocarcinoma) cell viability (% of control) ([9]; 100 nM): 36.1 ± 2.8 % of control
- Capan-1 (pancreas, adenocarcinoma) cell viability (% of control) ([9]; 300 nM): 35.5 ± 3.3 % of control
- LNCaP cell viability ([10]; 3.7 nM): 45.6 ± 7.0 % of control
- LNCaP cell viability ([10]; 11.1 nM): 17.2 ± 1.9 % of control
- LNCaP cell viability ([10]; 100 nM): 13.1 ± 0.8 % of control
- LNCaP cell viability ([10]; 300 nM): 13.9 ± 1.0 % of control
- PC-3 (prostate, adenocarcinoma) cell viability (% of control) ([11]; 3.7 nM): 82.1 ± 1.6 % of control
- PC-3 (prostate, adenocarcinoma) cell viability (% of control) ([11]; 11.1 nM): 38.9 ± 2.1 % of control
- PC-3 (prostate, adenocarcinoma) cell viability (% of control) ([11]; 100 nM): 34.6 ± 3.0 % of control
- PC-3 (prostate, adenocarcinoma) cell viability (% of control) ([11]; 300 nM): 34.3 ± 3.4 % of control
- SCC-25 (tongue, squamous cell carcinoma) cell viability (% of control) ([12]; 3.7 nM): 88.7 ± 5.6 % of control
- SCC-25 (tongue, squamous cell carcinoma) cell viability (% of control) ([12]; 11.1 nM): 45.1 ± 4.7 % of control
- SCC-25 (tongue, squamous cell carcinoma) cell viability (% of control) ([12]; 100 nM): 35.1 ± 2.2 % of control
- SCC-25 (tongue, squamous cell carcinoma) cell viability (% of control) ([12]; 300 nM): 39.7 ± 2.7 % of control
- FaDu (pharynx, squamous cell carcinoma) cell viability (% of control) ([13]; 3.7 nM): 80.1 ± 13.3 % of control
- FaDu (pharynx, squamous cell carcinoma) cell viability (% of control) ([13]; 11.1 nM): 29.1 ± 5.6 % of control
- FaDu (pharynx, squamous cell carcinoma) cell viability (% of control) ([13]; 100 nM): 24.0 ± 3.8 % of control
- FaDu (pharynx, squamous cell carcinoma) cell viability (% of control) ([13]; 300 nM): 26.1 ± 4.5 % of control
- MDA-MB-453 (breast, carcinoma) cell viability (% of control) ([14]; 3.7 nM): 55.8 ± 6.5 % of control
- MDA-MB-453 (breast, carcinoma) cell viability (% of control) ([14]; 11.1 nM): 35.8 ± 1.3 % of control
- MDA-MB-453 (breast, carcinoma) cell viability (% of control) ([14]; 100 nM): 33.1 ± 1.1 % of control
- MDA-MB-453 (breast, carcinoma) cell viability (% of control) ([14]; 300 nM): 31.6 ± 0.9 % of control
- Detroit 562 (pharynx, carcinoma) cell viability (% of control) ([15]; 3.7 nM): 35.1 ± 5.8 % of control
- Detroit 562 (pharynx, carcinoma) cell viability (% of control) ([15]; 11.1 nM): 28.4 ± 4.2 % of control
- Detroit 562 (pharynx, carcinoma) cell viability (% of control) ([15]; 100 nM): 28.6 ± 13.6 % of control
- Detroit 562 (pharynx, carcinoma) cell viability (% of control) ([15]; 300 nM): 33.0 ± 4.8 % of control
